Measured values as given in patent US10494355B2, “Oxadiazole amine derivative compounds as histone deacetylase 6 inhibitor, and the pharmaceutical composition comprising the same” (Chong Kun Dang Pharmaceutical Corp., priority 2015, dated 2019).

How the values were obtained:
human recombinant HDAC6 = molecular target: T1, human recombinant HDAC6 (Homo sapiens, UniProt Q9UBN7); assay: HDAC6 enzyme activity inhibition assay (HDAC Fluorimetric Drug Discovery Kit); type: biochemical; settings: 30° C. 60 minutes
T1 construct: purchased Calbiochem 382180
T1 sequence (Q9UBN7 1-1215): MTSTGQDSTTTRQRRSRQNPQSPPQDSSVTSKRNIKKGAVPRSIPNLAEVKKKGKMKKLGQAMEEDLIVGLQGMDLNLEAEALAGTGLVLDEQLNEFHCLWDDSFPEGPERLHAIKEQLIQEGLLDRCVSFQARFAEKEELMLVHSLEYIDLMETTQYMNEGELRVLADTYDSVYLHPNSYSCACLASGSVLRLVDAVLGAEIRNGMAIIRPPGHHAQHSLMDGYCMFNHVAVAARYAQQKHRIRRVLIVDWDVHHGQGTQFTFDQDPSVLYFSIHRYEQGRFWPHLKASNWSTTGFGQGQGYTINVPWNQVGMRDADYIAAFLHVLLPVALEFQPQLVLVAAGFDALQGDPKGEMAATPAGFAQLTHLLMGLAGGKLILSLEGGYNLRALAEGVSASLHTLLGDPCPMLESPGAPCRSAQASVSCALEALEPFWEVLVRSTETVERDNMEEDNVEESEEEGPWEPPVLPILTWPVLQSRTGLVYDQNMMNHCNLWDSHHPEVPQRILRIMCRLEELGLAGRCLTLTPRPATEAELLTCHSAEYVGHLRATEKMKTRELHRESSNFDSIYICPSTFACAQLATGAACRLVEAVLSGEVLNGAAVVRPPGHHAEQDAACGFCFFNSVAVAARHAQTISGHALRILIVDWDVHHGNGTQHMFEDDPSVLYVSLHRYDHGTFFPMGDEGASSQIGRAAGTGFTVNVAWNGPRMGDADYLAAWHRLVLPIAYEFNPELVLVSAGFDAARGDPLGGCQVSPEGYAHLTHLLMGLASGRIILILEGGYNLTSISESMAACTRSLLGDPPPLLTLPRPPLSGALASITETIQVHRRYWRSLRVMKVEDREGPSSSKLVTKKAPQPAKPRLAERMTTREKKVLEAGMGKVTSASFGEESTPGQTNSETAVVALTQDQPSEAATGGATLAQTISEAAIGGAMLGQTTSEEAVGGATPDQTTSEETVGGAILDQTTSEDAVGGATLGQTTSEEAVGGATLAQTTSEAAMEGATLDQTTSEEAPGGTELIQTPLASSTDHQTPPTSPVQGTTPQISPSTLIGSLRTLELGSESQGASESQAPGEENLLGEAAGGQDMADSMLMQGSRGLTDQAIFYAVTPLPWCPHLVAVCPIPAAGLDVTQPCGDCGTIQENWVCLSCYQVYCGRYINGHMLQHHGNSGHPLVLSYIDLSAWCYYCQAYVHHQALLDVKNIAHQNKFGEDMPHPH
Protocol: (§1) In order to examine the HDAC6 selectivity of the compounds of formula I of the present invention by HDAC1 and HDAC6 enzymatic activity inhibition assays, an experiment was performed using a conventional substance as a control.
(§2) HDAC enzyme activity was measured using a HDAC Fluorimetric Drug Discovery Kit (BML-AK511, 516, Enzo Life Science). For the HDAC1 enzyme activity test, human recombinant HDAC1 (BML-SE456) was used as an enzyme source, and Fluor de Lys®-“SIRT1 (BNL-KI177) was used as a substrate. A 5-fold dilution of the compound was seeded into a 96-well plate, and then 0.3 μg of the enzyme and 10 μM of the substrate were added to each well of the plate and allowed to react at 30° C. for 60 minutes. Then, Fluor de Lys®-Developer II (BML-KI176) was added thereto and allowed to react for 30 minutes, after which the fluorescence value (Ex 360, Em 460) was measured using a multi-plate reader (Flexstation 3, Molecular Device). The HDAC6 enzyme was tested using human recombinant HDAC6 (382180) (Calbiochem) according to the same protocol as the HDAC1 enzyme activity test method. Based on the resulting values, each IC50 value was calculated using GraphPad Prism4.0 program.

human recombinant HDAC1 = molecular target: T2, human recombinant HDAC1 (Homo sapiens, UniProt Q13547); assay: HDAC1 enzyme activity inhibition assay (HDAC Fluorimetric Drug Discovery Kit); type: biochemical; settings: human recombinant HDAC1, 10 μM substrate, 30° C. 60 minutes
T2 construct: purchased Enzo Life Science BML-SE456
T2 sequence (Q13547 whole entry): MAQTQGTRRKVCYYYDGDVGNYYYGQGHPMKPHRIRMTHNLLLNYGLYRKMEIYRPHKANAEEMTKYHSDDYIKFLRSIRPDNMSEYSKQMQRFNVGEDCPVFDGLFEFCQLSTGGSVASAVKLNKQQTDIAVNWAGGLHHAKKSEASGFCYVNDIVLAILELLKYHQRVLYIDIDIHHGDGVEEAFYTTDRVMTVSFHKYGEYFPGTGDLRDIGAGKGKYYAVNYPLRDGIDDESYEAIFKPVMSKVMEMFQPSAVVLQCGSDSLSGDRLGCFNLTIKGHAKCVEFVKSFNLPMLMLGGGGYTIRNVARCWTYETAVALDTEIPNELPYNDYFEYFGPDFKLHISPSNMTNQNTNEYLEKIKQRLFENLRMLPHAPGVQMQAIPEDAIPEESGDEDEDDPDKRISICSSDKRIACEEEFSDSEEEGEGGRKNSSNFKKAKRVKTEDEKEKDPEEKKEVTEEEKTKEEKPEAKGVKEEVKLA
Protocol: as §1, §2

Compound | IC50 (human recombinant HDAC6) [nM] | IC50 (human recombinant HDAC1) [nM]
Fc1ccccc1C1(Nc2ncc(-c3nnc(C(F)F)o3)cn2)CCC1 [Compound 1609, 5-(5-(difluoromethyl)-1,3,4-oxadiazol-2-yl)-N-(1-(2-fluorophenyl)cyclobutyl)pyrimidin-2-amine] | 23 | > 10000
Fc1cc(F)cc(C2(Nc3ncc(-c4nnc(C(F)F)o4)cn3)CCC2)c1 [Compound 1819, 5-(5-(difluoromethyl)-1,3,4-oxadiazol-2-yl)-N-(1-(3,5-difluorophenyl)cyclobutyl)pyrimidin-2-amine] | 70 | > 10000
FC(F)(F)c1ccc(C2(Nc3ncc(-c4nnc(C(F)(F)F)o4)cn3)CC2)cc1 [Compound 1742, 5-(5-(trifluoromethyl)-1,3,4-oxadiazol-2-yl)-N-(1-(4-(trifluoromethyl)phenyl)cyclopropyl)pyrimidin-2-amine] | 531 | > 10000
Fc1ccc(C2(Nc3ncc(-c4nnc(C(F)(F)F)o4)cn3)CCC2)cc1Cl [Compound 1818, N-(1-(3-chloro-4-fluorophenyl)cyclobutyl)-5-(5-(trifluoromethyl)-1,3,4-oxadiazol-2-yl)pyrimidin-2-amine] | 751 | > 10000
Fc1ccc(C2(Nc3ncc(-c4nnc(C(F)(F)F)o4)cn3)CCC2)c(Cl)c1 [Compound 1960, N-(1-(2-chloro-4-fluorophenyl)cyclobutyl)-5-(5-(trifluoromethyl)-1,3,4-oxadiazol-2-yl)pyrimidin-2-amine] | 1230 | > 10000
Fc1ccccc1C1(Nc2ncc(-c3nnc(C(F)F)o3)cn2)CC1 [Compound 1683, 5-(5-(difluoromethyl)-1,3,4-oxadiazol-2-yl)-N-(1-(2-fluorophenyl)cyclopropyl)pyrimidin-2-amine] | 21 | > 10000
Fc1cccc(C2(Nc3ncc(-c4nnc(C(F)(F)F)o4)cn3)CC2)c1 [Compound 1714, N-(1-(3-fluorophenyl)cyclopropyl)-5-(5-(trifluoromethyl)-1,3,4-oxadiazol-2-yl)pyrimidin-2-amine] | 138 | > 10000
Fc1ccc(Cl)cc1C1(Nc2ncc(-c3nnc(C(F)(F)F)o3)cn2)CCC1 [Compound 1964, N-(1-(5-chloro-2-fluorophenyl)cyclobutyl)-5-(5-(trifluoromethyl)-1,3,4-oxadiazol-2-yl)pyrimidin-2-amine] | 1850 | > 10000
Fc1ccc(F)c(C2(Nc3ncc(-c4nnc(C(F)F)o4)cn3)CCC2)c1 [Compound 1821, 5-(5-(difluoromethyl)-1,3,4-oxadiazol-2-yl)-N-(1-(2,5-difluorophenyl)cyclobutyl)pyrimidin-2-amine] | 32 | > 10000
Fc1ccc(Cl)c(C2(Nc3ncc(-c4nnc(C(F)F)o4)cn3)CCC2)c1 [Compound 1961, N-(1-(2-chloro-5-fluorophenyl)cyclobutyl)-5-(5-(difluoromethyl)-1,3,4-oxadiazol-2-yl)pyrimidin-2-amine] | 115 | > 10000
FC(F)c1nnc(-c2cnc(NC3(c4cccc(C(F)(F)F)c4)CCC3)nc2)o1 [Compound 1642, 5-(5-(difluoromethyl)-1,3,4-oxadiazol-2-yl)-N-(1-(3-(trifluoromethyl)phenyl)cyclobutyl)pyrimidin-2-amine] | 57 | > 10000
Cc1ccc(C2(Nc3ncc(-c4nnc(C(F)F)o4)cn3)CCC2)cc1 [Compound 1675, 5-(5-(difluoromethyl)-1,3,4-oxadiazol-2-yl)-N-(1-(p-tolyl)cyclobutyl)pyrimidin-2-amine] | 39 | > 10000
FC(F)(F)c1nnc(-c2cnc(NC3(c4ccccc4)CCCC3)nc2)o1 [Compound 1580, N-(1-phenylcyclopentyl)-5-(5-(trifluoromethyl)-1,3,4-oxadiazol-2-yl)pyrimidin-2-amine] | 305 | > 10000
FC(F)c1nnc(-c2cnc(NC3(c4ccc(C(F)(F)F)cc4)CC3)nc2)o1 [Compound 1738, 5-(5-(difluoromethyl)-1,3,4-oxadiazol-2-yl)-N-(1-(4-(trifluoromethyl)phenyl)cyclopropyl)pyrimidin-2-amine] | 132 | > 10000
Fc1ccc(C2(Nc3ncc(-c4nnc(C(F)(F)F)o4)cn3)CC2)cc1Cl [Compound 1723, N-(1-(3-chloro-4-fluorophenyl)cyclopropyl)-5-(5-(trifluoromethyl)-1,3,4-oxadiazol-2-yl)pyrimidin-2-amine] | 219 | > 10000
Cc1ccc(C2(Nc3ncc(-c4nnc(C(F)(F)F)o4)cn3)CCC2)cc1 [Compound 1676, N-(1-(p-tolyl)cyclobutyl)-5-(5-(trifluoromethyl)-1,3,4-oxadiazol-2-yl)pyrimidin-2-amine] | 242 | > 10000
Fc1ccc(C2(Nc3ncc(-c4nnc(C(F)(F)F)o4)cn3)CC2)cc1 [Compound 1712, N-(1-(4-fluorophenyl)cyclopropyl)-5-(5-(trifluoromethyl)-1,3,4-oxadiazol-2-yl)pyrimidin-2-amine] | 100 | > 10000

Next, values leading:

IC50 (human recombinant HDAC6) [nM] | IC50 (human recombinant HDAC1) [nM] | Compound
277 | > 10000 | FC(F)c1nnc(-c2cnc(NC3(c4ccc(C(F)(F)F)cc4)CCC3)nc2)o1 [Compound 2043, 5-(5-(difluoromethyl)-1,3,4-oxadiazol-2-yl)-N-(1-(4-(trifluoromethyl)phenyl)cyclobutyl)pyrimidin-2-amine]
31 | > 10000 | Cc1ccccc1C1(Nc2ncc(-c3nnc(C(F)F)o3)cn2)CC1 [Compound 2055, 5-(5-(difluoromethyl)-1,3,4-oxadiazol-2-yl)-N-(1-(o-tolyl)cyclopropyl)pyrimidin-2-amine]
478 | > 10000 | CCN1CCC(c2ccc(C3(Nc4ncc(-c5nnc(C(F)F)o5)cn4)CCC3)cc2)CC1 [Compound 2036, 5-(5-(difluoromethyl)-1,3,4-oxadiazol-2-yl)-N-(1-(4-(1-ethylpiperidin-4-yl)phenyl)cyclobutyl)pyrimidin-2-amine]
519 | > 10000 | FC(F)(F)c1nnc(-c2cnc(NC3(c4ccc(Cl)cc4)CC3)nc2)o1 [Compound 2053, N-(1-(4-chlorophenyl)cyclopropyl)-5-(5-(trifluoromethyl)-1,3,4-oxadiazol-2-yl)pyrimidin-2-amine]
35 | > 10000 | Fc1cc(Cl)ccc1C1(Nc2ncc(-c3nnc(C(F)F)o3)cn2)CC1 [Compound 2056, N-(1-(4-chloro-2-fluorophenyl)cyclopropyl)-5-(5-(difluoromethyl)-1,3,4-oxadiazol-2-yl)pyrimidin-2-amine]
43 | > 10000 | Fc1ccc(C2(Nc3ncc(-c4nnc(C(F)F)o4)cn3)CC2)c(F)c1 [Compound 2061, 5-(5-(difluoromethyl)-1,3,4-oxadiazol-2-yl)-N-(1-(2,4-difluorophenyl)cyclopropyl)pyrimidin-2-amine]
83 | > 10000 | Fc1cc(C2(Nc3ncc(-c4nnc(C(F)F)o4)cn3)CC2)ccc1Cl [Compound 2054, N-(1-(4-chloro-3-fluorophenyl)cyclopropyl)-5-(5-(difluoromethyl)-1,3,4-oxadiazol-2-yl)pyrimidin-2-amine]
189 | > 10000 | FC(F)c1nnc(-c2cnc(NC3(c4ccc(N5CCCCC5)cc4)CCC3)nc2)o1 [Compound 2041, 5-(5-(difluoromethyl)-1,3,4-oxadiazol-2-yl)-N-(1-(4-(piperidin-1-yl)phenyl)cyclobutyl)pyrimidin-2-amine]
